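48-hour exposure; five concentrations; linearly interpolated endpoints. GI50: concentration for 50% inhibition of growth. TGI is the concentration that stops growth completely.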
Key:
Assay in all cases: NCI tumour cell line growth inhibition, 48 h
RXF 393 renal = tested on: RXF 393 renal
SK-MEL-28 melanoma = tested on: SK-MEL-28 melanoma
U251 CNS = tested on: U251 CNS
SR leukemia = tested on: SR leukemia
KM12 colon = tested on: KM12 colon
SF-268 CNS = tested on: SF-268 CNS
NCI/ADR-RES ovarian = tested on: NCI/ADR-RES ovarian
NCI-H226 lung = tested on: NCI-H226 lung
HOP-92 NSCLC = tested on: HOP-92 NSCLC
DU-145 prostate = tested on: DU-145 prostate

Structure (SMILES) | TGI (RXF 393 renal) [µM] | TGI (SK-MEL-28 melanoma) [µM] | TGI (U251 CNS) [µM] | TGI (SR leukemia) [µM] | TGI (KM12 colon) [µM] | TGI (SF-268 CNS) [µM] | GI50 (RXF 393 renal) [µM] | TGI (NCI/ADR-RES ovarian) [µM] | TGI (NCI-H226 lung) [µM] | GI50 (HOP-92 NSCLC) [µM] | TGI (HOP-92 NSCLC) [µM] | GI50 (DU-145 prostate) [µM] | TGI (DU-145 prostate) [µM] | GI50 (SK-MEL-28 melanoma) [µM] | GI50 (NCI-H226 lung) [µM] | GI50 (NCI/ADR-RES ovarian) [µM] | GI50 (U251 CNS) [µM] | GI50 (SR leukemia) [µM] | GI50 (KM12 colon) [µM]
O=S(O)CCCSSSCCCS(=O)O | > 100 | > 100 | > 100 | > 100 | > 100 | > 100 | – | – | – | – | – | – | – | – | – | – | – | – | –
CN(C)c1cccc(OC(=O)NCCCl)c1 | > 100 | > 100 | > 100 | – | > 100 | > 100 | > 100 | > 100 | > 100 | > 100 | > 100 | – | – | – | – | – | – | – | –
c1csc(-c2ccc(CNc3c4ccccc4nc4ccccc34)cc2)c1 | 2.73 | 3.28 | – | – | – | – | 1.25 | – | 38.6 | 1.26 | 2.81 | 1.65 | 3.07 | 1.69 | 5.57 | – | – | – | –
COC(=O)c1sc2c(c1C(=O)OC)C(=NC(C)(C)C)SC2=NC(C)(C)C | 19.3 | 32 | 32.3 | 33.8 | 33.8 | 36 | – | 42.7 | 34.9 | – | 35.4 | – | 30.5 | – | – | – | – | – | –
c1ccc2c(c1)SCCc1cn[nH]c1-2 | > 100 | > 100 | > 100 | – | > 100 | > 100 | – | > 100 | > 100 | – | > 100 | – | – | – | – | – | – | – | –
Nc1ccc(Cn2ccc3c4c(N)nc(N)nc4ccc32)cc1 | 15.4 | 5.32 | 5.02 | 4.74 | 12.2 | 25.6 | – | > 100 | 27.7 | – | 8.7 | – | 14.3 | – | – | – | – | – | –
N#C/C(=C\c1ccc([N+](=O)[O-])o1)c1n[nH]c(Cc2ccccc2)n1 | 2.76 | 4.09 | 10.7 | – | 6.69 | 2.91 | – | 12.8 | 6.04 | – | 5.85 | – | 3 | – | – | – | – | – | –
COCCNCc1ccc(-c2cc3nccc(Oc4ccc(NC(=O)C5(C(=O)Nc6ccc(F)cc6)CC5)cc4F)c3s2)nc1 | – | – | 3.79 | 6.04 | 2.95 | – | – | 4.25 | 4.73 | – | – | 2.06 | 4.51 | – | 1.89 | 1.74 | 1.89 | 1.96 | 0.0411
S=c1[nH]n2c(COc3ccc(Cl)cc3)nnc2s1 | > 100 | > 100 | > 100 | > 100 | > 100 | > 100 | – | > 100 | > 100 | – | > 100 | – | > 100 | – | – | – | – | – | –
O=C1C(c2c(O)[nH]c3ccc(Cl)cc23)=Nc2ccccc21 | 7.11 | > 100 | 17.6 | > 100 | > 100 | 33.6 | – | > 100 | 37 | – | 29.5 | – | > 25.9 | – | – | – | – | – | –
NNC(=O)CCc1ccc2ccc3ccccc3c2c1 | > 100 | > 100 | > 100 | > 100 | > 100 | > 100 | – | > 100 | > 100 | – | > 100 | – | > 100 | – | – | – | – | – | –
Cc1cccc2c1Sc1ccccc1C2NC(=O)CN(C)C (stereo not drawn) | > 100 | > 100 | > 100 | > 100 | – | > 100 | – | – | > 100 | – | – | – | – | – | – | – | – | – | –
CSCC(CO)NC(=O)/C=C/c1c(C)[nH]c(=O)[nH]c1=O (stereo not drawn) | > 875 | > 875 | > 875 | – | > 875 | > 875 | – | > 875 | > 875 | – | 742 | – | – | – | – | – | – | – | –
Cc1ccc(C(C)C)c(OCC(=O)N/N=C/c2c[nH]c3ccc(Br)cc23)c1 | 3.42 | 21.8 | 11.1 | 4.97 | 6.3 | 23.9 | – | 6.6 | – | – | 27.8 | – | 8.06 | – | – | – | – | – | –
NNC(=O)c1cc([N+](=O)[O-])ccc1NC(=O)C12CC3CC(CC(C3)C1)C2 | 42.2 | – | 37.7 | 55.6 | > 100 | > 100 | – | 49.2 | 40.3 | – | 51.7 | – | > 100 | – | – | – | – | – | –
Clc1cc(OCc2nn3c(Cc4ccccc4)nnc3s2)c(Cl)cc1OCc1nn2c(Cc3ccccc3)nnc2s1 | 75.4 | > 100 | > 100 | 10.4 | > 100 | > 100 | – | > 100 | > 100 | – | 61.2 | – | > 100 | – | – | – | – | – | –
O=C(Sc1n[nH]c(=O)[nH]c1=O)c1cccc2nc3ccccc3nc12 | > 100 | 90.9 | > 100 | > 100 | > 100 | > 100 | – | > 100 | > 100 | – | > 100 | – | 36.2 | – | – | – | – | – | –
CO/C=C1\OC(=O)C=C1OC | > 100 | > 100 | > 31.6 | – | > 100 | > 100 | – | > 100 | > 100 | – | > 100 | – | – | – | – | – | – | – | –
CN(c1ccccc1)c1nc(=[N+]2CCCC2)ss1 | 8.85 | > 100 | > 100 | > 100 | > 100 | > 100 | – | – | > 100 | – | – | – | – | – | – | – | – | – | –
CC(=O)OC1CC(OC2C(O)CC(OC3C(O)CC(OC4CCC5(C)C(CCC6C5CCC5(C)C(C7=CC(=O)OC7)CCC65O)C4)OC3C)OC2C)OC(C)C1OC1OC(CO)C(O)C(O)C1O (stereo not drawn) | 0.101 | 0.592 | 0.137 | – | 0.31 | 0.129 | – | 0.0581 | 0.241 | – | 0.234 | – | 0.0489 | – | – | – | – | – | –
CC1(C)N=C(c2ccccc2)SC12S[C@@H]1CCCC[C@H]1S2 | > 100 | > 100 | > 100 | – | > 100 | > 100 | – | > 100 | > 100 | – | > 100 | – | > 100 | – | – | – | – | – | –
COc1cc(NCCC(=O)O)c2ncccc2c1 | > 100 | > 100 | > 100 | > 100 | – | > 100 | – | > 100 | > 100 | – | > 100 | – | – | – | – | – | – | – | –
